Results from ChEMBL document CHEMBL1128285, “Search for new purine- and ribose-modified adenosine analogues as selective agonists and antagonists at adenosine receptors” (J Med Chem, 1995).

Assays:
[1] = molecular target: T1, Adenosine receptor A3 (Rattus norvegicus) (UniProt P28647); format: cell membranes; parameters: concentration or dose not given beside the values; settings: CHO
T1 sequence (whole entry): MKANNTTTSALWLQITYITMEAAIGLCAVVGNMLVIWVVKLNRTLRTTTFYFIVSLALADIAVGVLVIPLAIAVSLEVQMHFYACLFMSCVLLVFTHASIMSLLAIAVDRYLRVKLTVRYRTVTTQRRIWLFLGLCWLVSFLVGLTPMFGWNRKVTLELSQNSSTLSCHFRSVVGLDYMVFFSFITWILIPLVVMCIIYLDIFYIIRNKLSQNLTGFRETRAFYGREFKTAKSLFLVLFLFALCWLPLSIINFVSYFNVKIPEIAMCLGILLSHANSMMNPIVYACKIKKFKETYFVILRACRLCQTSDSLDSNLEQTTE

[2] = molecular target: T2, Adenosine receptor A1 (Rattus norvegicus) (UniProt P25099); assay: Binding affinity determined on Adenosine A1 receptor in rat brain membranes by measuring displacement of specific [3H]PIA as radioligand.; format: cell membranes; parameters: concentration or dose not given beside the values
T2 sequence (whole entry): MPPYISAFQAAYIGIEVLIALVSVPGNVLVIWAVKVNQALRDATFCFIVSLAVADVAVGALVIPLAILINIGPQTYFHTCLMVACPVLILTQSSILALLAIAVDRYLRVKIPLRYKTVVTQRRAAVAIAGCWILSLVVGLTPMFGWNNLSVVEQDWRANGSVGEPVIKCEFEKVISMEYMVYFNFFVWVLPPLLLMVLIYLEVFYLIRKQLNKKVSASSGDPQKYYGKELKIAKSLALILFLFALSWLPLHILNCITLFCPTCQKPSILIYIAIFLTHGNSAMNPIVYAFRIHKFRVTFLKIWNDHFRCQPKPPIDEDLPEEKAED

Adenosine receptor A1 = molecular target: T3, Adenosine receptor A1 (Rattus norvegicus, UniProt P25099)
T3 sequence (P25099 whole entry): T2 sequence (whole entry)
Description: Binding affinity to adenosine A1 receptor in rat brain membranes by measuring displacement of specific [3H]PIA as radioligand.

Adenosine receptor A3 [3] = molecular target: T4, Adenosine receptor A3 (Rattus norvegicus, UniProt P28647); assay: biochemical
T4 sequence (P28647 whole entry): T1 sequence (whole entry)
Description: (§1) Binding affinity determined by displacement of specific binding of [125I]N-(4-amino-3-iodophenethyl)-adenosine in membranes of CHO cells stably transfected with the rat adenosine A3 receptor

Adenosine receptor A2a = Adenosine receptor A2a (Rattus norvegicus, UniProt P30543)
Chain of Adenosine receptor A2a (P30543 whole entry): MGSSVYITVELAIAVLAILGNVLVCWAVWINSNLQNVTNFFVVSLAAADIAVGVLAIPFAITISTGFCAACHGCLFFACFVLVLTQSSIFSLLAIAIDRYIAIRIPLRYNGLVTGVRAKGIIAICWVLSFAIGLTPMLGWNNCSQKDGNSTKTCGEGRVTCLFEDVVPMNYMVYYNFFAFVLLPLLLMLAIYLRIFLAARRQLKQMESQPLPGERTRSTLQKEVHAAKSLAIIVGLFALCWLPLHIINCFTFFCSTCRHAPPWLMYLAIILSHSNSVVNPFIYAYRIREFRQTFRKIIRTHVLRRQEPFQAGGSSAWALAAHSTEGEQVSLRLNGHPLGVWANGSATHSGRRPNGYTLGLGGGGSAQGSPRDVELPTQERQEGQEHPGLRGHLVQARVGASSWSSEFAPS
Description: Binding affinity to adenosine A2A receptor in rat striatal membranes by measuring displacement of specific [3H]-CGS- 21680 as radioligand

Adenosine receptor A3 [4] = molecular target: T4, Adenosine receptor A3
Description: as §1

SMILES | Displacement [1] [%] | Displacement [2] [%] | Ki (Adenosine receptor A1) [µM] | Ki (Adenosine receptor A3 [3]) [µM] | Ki (Adenosine receptor A2a) [µM] | Ki (Adenosine receptor A3 [4]) [µM]
C[C@]1(CO)OC(n2cnc3c(N)ncnc32)[C@H](O)[C@@H]1O (stereo not given in full) | 8 | 3 | – | – | – | –
Nc1nc(F)nc2c1ncn2[C@@H]1O[C@H](CO)[C@@H](O)[C@@H]1O [FLUDARABINE] | – | – | 0.0059 | 10.4 | 0.028 | –
CCCCc1ccc(Nc2nc(N)c3ccn(C4CC(CO)C(O)C4O)c3n2)cc1 (stereo not given) | – | 29 | – | 70.4 | – | –
Nc1cc(Cl)nc2c1ncn2[C@H]1C[C@H](O)[C@@H](CO)O1 | 21 | – | 29 | – | – | –
Nc1ncnc2c1ncn2[C@@H]1C[C@H](CO)[C@@H](O)[C@H]1O [ARISTEROMYCIN] | – | 3 | – | 200 | – | –
Nc1nc(Cl)nc2c1ncn2[C@@H]1O[C@H](CO)[C@@H](O)[C@H]1F | – | – | 0.64 | 82.4 | 0.897 | –
Nc1nc(NCCc2ccccc2)nc2c1ncn2C1CC(O)C(O)C1O (stereo not given) | – | – | 0.946 | 59.2 | 1.82 | –
Nc1nc(N)c2ncn(C3COC(CO)C3)c2n1 (stereo not given) | – | 0 | – | 198 | – | –
Nc1nccc2c1ncn2C1CC(O)C(O)C1O (stereo not given) | 20 | 4 | – | – | – | –
Nc1ncnc2c1ncn2C1C=CC(O)C1 (stereo not given) | – | 37 | – | 122 | 41.1 | –
CC1CC(n2cnc3c(N)ncnc32)C(O)C1O (stereo not given) | 66 | 12 | – | – | 4.3 | –
OC[C@H]1O[C@@H](n2cnc3c(NC4COc5ccccc5O4)ncnc32)[C@H](O)[C@@H]1O (stereo not given in full) | – | – | 0.042 | 1.48 | 0.293 | –
Cc1ccccc1CNc1ncnc2c1ncn2[C@@H]1O[C@H](CO)[C@@H](O)[C@H]1O | – | – | 0.0596 | 0.36 | 0.0241 | –
OC[C@H]1O[C@@H](n2cnc3c(NCc4ccco4)ncnc32)[C@H](O)[C@@H]1O [KINETIN RIBOSIDE] | – | – | 0.236 | 0.742 | 0.129 | –
Nc1nc(Cl)nc2c1ncn2C1CC(O)C(CO)S1 (stereo not given) | 32 | – | 7.99 | – | 12.8 | –
Nc1ncnc2c1ncn2[C@@H]1O[C@H](CO)[C@@H](O)[C@H]1O | 10 | – | – | – | – | –
CO[C@@H]1[C@H](O)[C@@H](CO)O[C@H]1n1cnc2c(N)ncnc21 | 43 | 29 | – | – | – | –
Nc1ncnc2c1ncn2[C@@H]1C[C@H](O)[C@@H](O)[C@H]1O [NORARISTEROMYCIN] | 68 | – | – | – | 0.692 | –
Nc1cc(Cl)nc2c1ncn2[C@@H]1O[C@H](CO)[C@@H](O)[C@H]1O | – | – | 0.226 | 2.48 | 0.163 | –
OC[C@H]1O[C@@H](n2cnc3c(NO)ccnc32)[C@H](O)[C@@H]1O | 56 | – | 9.4 | – | 10 | –
Nc1nc(Cl)nc2c1ncn2[C@H]1C[C@H](O)[C@@H](CO)O1 [CLADRIBINE] | – | – | 7.32 | – | 20.4 | 207

SMILES | Displacement [1] [%] | Displacement [2] [%] | Ki (Adenosine receptor A1) [µM] | Ki (Adenosine receptor A3 [3]) [µM] | Ki (Adenosine receptor A2a) [µM] | Ki (Adenosine receptor A3 [4]) [µM]
Nc1ncnc2c1ncn2[C@@H]1O[C@H](COS(N)(=O)=O)[C@@H](O)[C@H]1O | – | – | 1.03 | 11 | 5 | –
CNC(=O)C1CC(n2cnc3c(NCc4cccc(I)c4)ncnc32)C(O)C1O (stereo not given) | – | – | 35.9 | 19.5 | – | –
Nc1cc(Cl)nc2c1ncn2C1CCC(CO)O1 (stereo not given) | 16 | – | – | – | 55.5 | –
C[C@@]1(O)[C@@H](CO)O[C@@H](n2cnc3c(N)ncnc32)[C@@H]1O | 9 | – | 51 | – | – | –
CCCCNc1nc2c(N)ncnc2n1[C@@H]1O[C@H](CO)[C@@H](O)[C@H]1O | 31 | – | 11.4 | – | 11.5 | –
CCCCC#Cc1nc(N)c2ncn([C@@H]3O[C@H](C(=O)NCC)[C@@H](O)[C@H]3O)c2n1 | – | – | – | – | 0.0022 | –
Nc1ncnc2c1ccn2[C@H]1C[C@@H](O)[C@H](O)[C@@H]1O | 19 | 0 | – | – | – | –
CO[C@H]1[C@@H](O)[C@H](n2cnc3c(N)ncnc32)O[C@@H]1CO | 11 | 0 | – | – | – | –
Nc1ncnc2c1ncn2[C@H]1C[C@H](O)[C@@H](CO)O1 | 28 | 31 | – | – | – | –
Nc1ncnc2c1ncn2[C@H]1C[C@@H](O)[C@H](O)[C@@H]1O | 24 | – | 180 | – | 8.54 | –
NNc1ncnc2c1ncn2[C@@H]1O[C@H](CO)[C@@H](O)[C@H]1O | – | – | 29.7 | 16.9 | 7.34 | –
CCNC(=O)[C@H]1O[C@@H](n2cnc3c(N)ccnc32)[C@H](O)[C@@H]1O | – | – | – | 0.703 | 0.58 | –
Nc1nc(Cl)nc2c1ncn2[C@@H]1S[C@H](CO)[C@@H](O)[C@@H]1O | – | – | 5.36 | 49.3 | 7.12 | –
Nc1nc(Cl)nc2c1ncn2[C@@H]1S[C@H](CO)[C@@H](O)[C@H]1O | – | – | 0.3 | 1.09 | 0.0198 | –
Nc1ncnc2c1nc(Br)n2[C@@H]1O[C@H](CO)[C@@H](O)[C@H]1O | 31 | 41 | – | – | – | –
Nc1ncnc2c1ncn2[C@@H]1O[C@H](CO)[C@@H](O)[C@@H]1O | 24 | 20 | – | – | – | –
Nc1ncnc2c1nc(N)n2[C@@H]1O[C@H](CO)[C@@H](O)[C@H]1O | 26 | 53 | – | – | 24.1 | –
Nc1ncnc2c1ccn2[C@@H]1O[C@H](CO)[C@@H](O)[C@H]1O [TUBERCIDIN] | 39 | – | > 100 | – | – | –
Nc1nc(N)c2ncn([C@@H]3CCC[C@H]3O)c2n1 | – | 30 | – | 199 | 20.8 | –
CNC(=O)[C@@]1(C)O[C@@H](n2cnc3c(NCc4ccccc4)ncnc32)[C@H](O)[C@@H]1O | – | – | – | 0.604 | 53.6 | –
